# Experimental data reported in publication PMC11995724, “Antibiotic target discovery by integrated phenotypic and activity-based profiling of electrophilic fragments” (Cell chemical biology, 2025).
# Where a name gives a salt, the structure may show the parent alone.
# Assay: in vitro
# Conditions: human, hek293t cells
row,SMILES,"viability at 48 h, 25 µM [%]"
1,"O=C(CCl)NCc1ccc(NC(=O)C2CC2)cc1 [6-E20, N-{4-[(2-chloroacetamido)methyl]phenyl}cyclopropanecarboxamide]",2.09
2,"CC(Cl)C(=O)NC(C)(C)c1ccc(F)cc1F (centres unmarked) [6-E21, 2-chloro-N-[2-(2,4-difluorophenyl)propan-2-yl]propanamide]",93.5
3,"O=C(CCl)NCc1ccc(N2CCOCC2)nc1 [6-E22, 2-chloro-N-{[6-(morpholin-4-yl)pyridin-3-yl]methyl}acetamide]",8.26
4,"Cc1cc(C)cc(OCCN(C)C(=O)CCl)c1 [6-F03, 2-chloro-N-[2-(3,5-dimethylphenoxy)ethyl]-N-methylacetamide]",0.538
5,"O=C(CCl)NCC(=O)N1CCC(Cc2ccccc2)CC1 [6-F04, N-[2-(4-benzylpiperidin-1-yl)-2-oxoethyl]-2-chloroacetamide]",21.7
6,"CC(Cl)C(=O)N1CCC(c2nc(N(C)C)no2)CC1 (centres unmarked) [6-F05, 2-chloro-1-{4-[3-(dimethylamino)-1,2,4-oxadiazol-5-yl]piperidin-1-yl}propan-1-one]",108
7,"CC(Cl)C(=O)NCCc1ccc(F)cc1 (centres unmarked) [6-F06, 2-chloro-N-[2-(4-fluorophenyl)ethyl]propanamide]",112
8,"CC(Cl)C(=O)NCC1CN(c2ccc(Cl)cc2)CCO1 (centres unmarked) [6-F07, 2-chloro-N-{[4-(4-chlorophenyl)morpholin-2-yl]methyl}propanamide]",101
9,"O=C(CCl)N1CCSc2c([nH]c3ccccc23)C1 [6-F08, 2-chloro-1-{2H,3H,4H,5H,6H-[1,4]thiazepino[6,7-b]indol-4-yl}ethan-1-one]",1.68
10,"CC(Cl)C(=O)NCc1nc(-c2cccc(C#N)c2)c[nH]1 (centres unmarked) [6-F09, 2-chloro-N-{[4-(3-cyanophenyl)-1H-imidazol-2-yl]methyl}propanamide]",113
11,"Cc1cccc(C)c1NC(=O)CNC(=O)C(C)Cl (centres unmarked) [6-F10, 2-chloro-N-{[(2,6-dimethylphenyl)carbamoyl]methyl}propanamide]",106
12,"Cc1noc(C)c1CC(=O)N1CCN(C(=O)C(C)Cl)CC1 (centres unmarked) [6-F11, 2-chloro-1-{4-[2-(3,5-dimethyl-1,2-oxazol-4-yl)acetyl]piperazin-1-yl}propan-1-one]",106
13,"COc1ccc(NC(=O)C(C)Cl)cc1OC (centres unmarked) [6-F12, 2-chloro-N-(3,4-dimethoxyphenyl)propanamide]",109
14,"CC(CNC(=O)C(C)Cl)Oc1cccc(Cl)c1 (centres unmarked) [6-F13, 2-chloro-N-[2-(3-chlorophenoxy)propyl]propanamide]",103
15,"CC(Cl)C(=O)NCc1nnnn1CC1CC1 (centres unmarked) [6-F14, 2-chloro-N-{[1-(cyclopropylmethyl)-1H-1,2,3,4-tetrazol-5-yl]methyl}propanamide]",115
16,"CC(Cl)C(=O)N1CCC(c2nccn2C)C1 (centres unmarked) [6-F15, 2-chloro-1-[3-(1-methyl-1H-imidazol-2-yl)pyrrolidin-1-yl]propan-1-one]",98.6
17,"CC(Cl)C(=O)N1CCCCC1C1CCCN(C(=O)C(F)(F)F)C1 (centres unmarked) [6-F16, 2-chloro-1-[1'-(2,2,2-trifluoroacetyl)-[2,3'-bipiperidin]-1-yl]propan-1-one]",105
18,"COc1ccc([C@H]2C[C@H](NC(=O)C(C)Cl)C2)cc1F (some centres unmarked) [6-F17, 2-chloro-N-[(1r,3r)-3-(3-fluoro-4-methoxyphenyl)cyclobutyl]propanamide]",91.5
19,"CC(Cl)C(=O)N1CCn2c(Cc3c(F)cccc3F)nnc2C1 (centres unmarked) [6-F18, 2-chloro-1-{3-[(2,6-difluorophenyl)methyl]-5H,6H,7H,8H-[1,2,4]triazolo[4,3-a]pyrazin-7-yl}propan-1-one]",100

row,SMILES,"viability at 48 h, 25 µM [%]"
1,"O=C(CCl)NC(CC1CC1)c1ccc(Cl)cn1 (centres unmarked) [6-F19, 2-chloro-N-[1-(5-chloropyridin-2-yl)-2-cyclopropylethyl]acetamide]",1.46
2,"CC(Cl)C(=O)N1Cc2ccccc2C(n2cccn2)C1 (centres unmarked) [6-F20, 2-chloro-1-[4-(1H-pyrazol-1-yl)-1,2,3,4-tetrahydroisoquinolin-2-yl]propan-1-one]",103
3,"CC(Cl)C(=O)NC1(c2nnc[nH]2)CCC1 (centres unmarked) [6-F21, 2-chloro-N-[1-(4H-1,2,4-triazol-3-yl)cyclobutyl]propanamide]",87.6
4,"CC(Cl)C(=O)N1CCn2c(C#N)ccc2C1C (centres unmarked) [6-F22, 2-(2-chloropropanoyl)-1-methyl-1H,2H,3H,4H-pyrrolo[1,2-a]pyrazine-6-carbonitrile]",98.2
5,"O=C(CCl)NCCOc1cccc(F)c1 [6-G03, 2-chloro-N-[2-(3-fluorophenoxy)ethyl]acetamide]",97.9
6,"O=C(CCl)NCc1ccc(C(=O)N2CCCC2)cc1 [6-G04, 2-chloro-N-{[4-(pyrrolidine-1-carbonyl)phenyl]methyl}acetamide]",107
7,"O=C(CCl)NCCOc1cccc(Cl)c1 [6-G05, 2-chloro-N-[2-(3-chlorophenoxy)ethyl]acetamide]",107
8,"CC(c1cccc([N+](=O)[O-])c1)N(C)C(=O)CCl (centres unmarked) [6-G06, 2-chloro-N-methyl-N-[1-(3-nitrophenyl)ethyl]acetamide]",1.19
9,"CC(Cl)C(=O)Nc1ccc(NC(=O)c2cccs2)cc1 (centres unmarked) [6-G07, N-[4-(2-chloropropanamido)phenyl]thiophene-2-carboxamide]",101
10,"O=C(CCl)NCc1ccc(OC(F)(F)F)cc1 [6-G08, 2-chloro-N-{[4-(trifluoromethoxy)phenyl]methyl}acetamide]",1.3
11,"COc1cc2c(cc1NC(=O)C(C)Cl)oc1ccccc12 (centres unmarked) [6-G09, 2-chloro-N-{4-methoxy-8-oxatricyclo[7.4.0.0,2,7]trideca-1(9),2(7),3,5,10,12-hexaen-5-yl}propanamide]",93
12,"CC(Cl)C(=O)Nc1ccccc1C(=O)c1ccccc1 (centres unmarked) [6-G10, N-(2-benzoylphenyl)-2-chloropropanamide]",102
13,"CC1CN(CCCNC(=O)CCl)CC(C)O1 (centres unmarked) [6-G11, 2-chloro-N-[3-(2,6-dimethylmorpholin-4-yl)propyl]acetamide hydrochloride]",116
14,"O=C(CCl)N1CCC(CCc2ccccc2)CC1 [6-G12, 2-chloro-1-[4-(2-phenylethyl)piperidin-1-yl]ethan-1-one]",1.05
15,"COc1ccc(S(=O)(=O)N2CCCCC2)cc1NC(=O)CCl [6-G13, 2-chloro-N-[2-methoxy-5-(piperidine-1-sulfonyl)phenyl]acetamide]",1.34
16,"O=C(CCl)Nc1cc(S(=O)(=O)N2CCCC2)ccc1Cl [6-G14, 2-chloro-N-[2-chloro-5-(pyrrolidine-1-sulfonyl)phenyl]acetamide]",1.44
17,"COc1ccc(Cl)cc1NC(=O)C(C)Cl (centres unmarked) [6-G16, 2-chloro-N-(5-chloro-2-methoxyphenyl)propanamide]",112
18,"O=C(CCl)NCC(c1ccccc1Cl)N1CCCC1 (centres unmarked) [6-G17, 2-chloro-N-[2-(2-chlorophenyl)-2-(pyrrolidin-1-yl)ethyl]acetamide hydrochloride]",104
19,"O=C(CCl)NC1CCN(Cc2ccccc2)C1 (centres unmarked) [6-G18, N-(1-benzylpyrrolidin-3-yl)-2-chloroacetamide hydrochloride]",3.85
